# Measurements from US20210023089A1, “Compositions Useful for Treating Herpes Simplex Keratitis, and Methods Using Same” (priority 2013, published 2021).
# Key:
# HSV-1 = assay: Time-of-addition of KU-55933 in HSV-1 infected hTCEpi cells (Western blot gC, qRT-PCR genome); assay type: cell-based; conditions: MOI 1, KU-55933 10 μM, read at 8 hpi
# Method: Standard protocol was followed for Western blot analysis. Cell lysates were collected in Laemmli buffer, vortexed, and boiled at 95° C. for 5 min. Protein concentrations were measured by reducing agent-compatible BCA assay. SDS-PAGE was followed by transfer onto a PVDF membrane, which was then blocked in 5% BSA. Primary antibody staining was performed overnight and blots were visualized on film or with the Odyssey near-infrared system (LI-COR, Lincoln, Nebr.). Primary antibodies against the following proteins were used: ICP0 (Virusys Corporation, Taneytown, Md.), ICP4, PML, and nucleolin (Santa Cruz Biotechnology, Santa Cruz, Calif.), ICP8, glycoproteins B and C, ATM and pATM-Ser1981 (Rockland, Gilbertsville, Pa.), Chk2 and pChk2-Thr68 (Cell Signaling, Danvers, Mass.).
# Total DNA was isolated from infected cells using the DNeasy Blood & Tissue Kit (QIAGEN, Hilden, Germany). Real time quantitative PCR was performed with SYBR Green (Bio-Rad, Hercules, Calif.). Target primers for UL30 (DNA polymerase catalytic subunit) and reference primers for GAPDH were used to measure genome replication. Primer sequences were provided in Alekseev et al., 2014, Invest. Ophthalm. Vis. Sci. 55:706-715). Real time PCR data were processed using the ΔΔC(t) method.
# hTCEpi, EPC2, and OKF6 are normal human epithelial cells from cornea, esophagus, and palate, respectively. […]
# hTCEpi cells = assay: Colony survival assay; assay type: cell-based, human
# Method: hTCEpi cells were treated with KU-55933 (10 μM) or DMSO for 24 hours, trypsinized, counted, and plated into 6-cm dishes at 50 cells/dish. After 2 weeks, colonies were fixed with 10% buffered formalin, stained with 0.01% crystal violet, rinsed, and counted.
# ATM = biological target: T1, ATM (Homo sapiens, UniProt Q13315); assay: pATM Western blot in bleomycin-damaged ex vivo human corneas (bioavailability); assay type: cell-based; conditions: bleomycin 200 μg/mL 1 hour, KU-55933 10 μM 1 hour pretreatment
# T1 construct: The epithelial layers were collected for protein lysates and analyzed by Western blot with antibodies against pATM (Ser1981) and total ATM; tissue Lions Eye Bank of Delaware Valley; host or cells: epithelial layer of explanted human corneas
# T1 sequence (Q13315 whole entry): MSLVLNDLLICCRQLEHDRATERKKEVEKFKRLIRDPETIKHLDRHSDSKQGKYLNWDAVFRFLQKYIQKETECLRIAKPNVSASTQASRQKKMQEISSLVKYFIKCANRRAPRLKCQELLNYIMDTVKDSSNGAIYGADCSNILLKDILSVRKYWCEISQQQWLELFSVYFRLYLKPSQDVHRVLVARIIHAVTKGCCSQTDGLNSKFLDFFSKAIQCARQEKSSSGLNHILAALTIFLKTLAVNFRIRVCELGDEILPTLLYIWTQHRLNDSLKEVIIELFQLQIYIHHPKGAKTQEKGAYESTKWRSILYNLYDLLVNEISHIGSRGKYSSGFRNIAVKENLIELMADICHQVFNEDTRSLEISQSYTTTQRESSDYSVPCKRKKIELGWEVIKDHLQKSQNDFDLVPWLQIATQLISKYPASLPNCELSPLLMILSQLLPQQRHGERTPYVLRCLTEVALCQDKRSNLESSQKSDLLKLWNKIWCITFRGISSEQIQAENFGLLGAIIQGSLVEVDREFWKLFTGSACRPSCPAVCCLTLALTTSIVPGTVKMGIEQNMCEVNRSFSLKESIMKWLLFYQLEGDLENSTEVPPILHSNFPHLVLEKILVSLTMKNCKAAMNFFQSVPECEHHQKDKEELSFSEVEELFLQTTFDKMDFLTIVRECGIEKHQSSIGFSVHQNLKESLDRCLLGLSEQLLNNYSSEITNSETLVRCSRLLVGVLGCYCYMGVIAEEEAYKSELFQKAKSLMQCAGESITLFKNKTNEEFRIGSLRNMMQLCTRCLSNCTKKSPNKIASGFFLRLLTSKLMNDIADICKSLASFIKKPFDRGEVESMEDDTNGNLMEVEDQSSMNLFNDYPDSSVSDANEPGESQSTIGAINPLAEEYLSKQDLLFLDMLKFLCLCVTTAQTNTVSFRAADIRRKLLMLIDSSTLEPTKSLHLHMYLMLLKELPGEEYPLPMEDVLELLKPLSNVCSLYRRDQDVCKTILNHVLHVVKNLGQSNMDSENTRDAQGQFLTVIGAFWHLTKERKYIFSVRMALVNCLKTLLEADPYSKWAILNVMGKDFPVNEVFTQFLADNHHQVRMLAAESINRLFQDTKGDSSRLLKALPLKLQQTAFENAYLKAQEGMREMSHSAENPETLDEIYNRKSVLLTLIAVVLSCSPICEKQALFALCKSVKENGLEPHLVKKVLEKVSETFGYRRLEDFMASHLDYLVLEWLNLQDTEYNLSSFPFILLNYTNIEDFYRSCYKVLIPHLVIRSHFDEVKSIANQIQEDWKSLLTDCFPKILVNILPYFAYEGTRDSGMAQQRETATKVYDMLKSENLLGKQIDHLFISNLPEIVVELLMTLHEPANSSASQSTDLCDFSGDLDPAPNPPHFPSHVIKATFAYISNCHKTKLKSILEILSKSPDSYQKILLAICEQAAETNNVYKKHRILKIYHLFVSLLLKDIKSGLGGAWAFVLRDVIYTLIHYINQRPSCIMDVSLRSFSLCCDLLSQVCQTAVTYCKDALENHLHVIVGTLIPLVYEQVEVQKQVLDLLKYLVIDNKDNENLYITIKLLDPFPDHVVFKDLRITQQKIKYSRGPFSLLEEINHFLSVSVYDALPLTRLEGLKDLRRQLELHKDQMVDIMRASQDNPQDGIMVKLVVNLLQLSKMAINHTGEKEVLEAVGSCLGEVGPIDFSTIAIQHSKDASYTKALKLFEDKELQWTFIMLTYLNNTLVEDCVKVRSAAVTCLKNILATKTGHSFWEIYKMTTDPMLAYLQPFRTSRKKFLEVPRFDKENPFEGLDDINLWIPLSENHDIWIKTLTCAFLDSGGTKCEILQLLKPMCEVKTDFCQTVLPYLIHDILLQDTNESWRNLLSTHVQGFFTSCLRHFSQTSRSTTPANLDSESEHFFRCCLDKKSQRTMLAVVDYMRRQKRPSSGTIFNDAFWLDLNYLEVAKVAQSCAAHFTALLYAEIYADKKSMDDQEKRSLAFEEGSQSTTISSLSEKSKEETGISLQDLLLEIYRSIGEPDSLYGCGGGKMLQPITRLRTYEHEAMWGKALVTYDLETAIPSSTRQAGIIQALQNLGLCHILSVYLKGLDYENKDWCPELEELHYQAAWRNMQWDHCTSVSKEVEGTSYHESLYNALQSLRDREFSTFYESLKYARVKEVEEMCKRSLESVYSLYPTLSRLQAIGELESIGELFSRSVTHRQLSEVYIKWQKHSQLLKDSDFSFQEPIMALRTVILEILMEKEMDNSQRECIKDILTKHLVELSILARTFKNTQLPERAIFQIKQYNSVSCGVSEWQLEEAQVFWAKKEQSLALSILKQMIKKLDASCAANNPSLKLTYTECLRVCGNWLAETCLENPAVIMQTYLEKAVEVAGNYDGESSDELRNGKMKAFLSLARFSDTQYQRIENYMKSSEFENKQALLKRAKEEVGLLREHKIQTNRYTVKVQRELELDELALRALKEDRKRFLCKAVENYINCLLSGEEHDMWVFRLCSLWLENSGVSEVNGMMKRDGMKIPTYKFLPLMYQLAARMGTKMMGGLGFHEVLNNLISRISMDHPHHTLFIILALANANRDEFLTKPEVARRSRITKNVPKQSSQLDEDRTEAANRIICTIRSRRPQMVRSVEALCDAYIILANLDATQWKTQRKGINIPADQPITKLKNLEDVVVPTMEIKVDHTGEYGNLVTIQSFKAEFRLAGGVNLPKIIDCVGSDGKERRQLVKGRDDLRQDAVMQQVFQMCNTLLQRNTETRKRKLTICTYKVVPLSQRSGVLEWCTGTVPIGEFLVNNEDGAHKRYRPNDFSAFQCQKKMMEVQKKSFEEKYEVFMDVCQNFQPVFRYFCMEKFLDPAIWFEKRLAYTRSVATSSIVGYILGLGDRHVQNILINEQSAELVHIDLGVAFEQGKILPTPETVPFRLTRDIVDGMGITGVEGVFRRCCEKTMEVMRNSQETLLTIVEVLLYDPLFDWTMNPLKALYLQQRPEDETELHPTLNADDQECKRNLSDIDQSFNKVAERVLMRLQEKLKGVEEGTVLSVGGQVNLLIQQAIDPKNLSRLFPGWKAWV
# Method: Human corneas were obtained from the Lions Eye Bank of Delaware Valley. Rabbit corneas were excised from intact fresh eyeballs of young (8-12 weeks) albino rabbits (Pel-Freez Biologicals, Rogers, Ark.). Protocol (Alekseev et al., 2012, J Vis Exp 69:e3631) for ex vivo corneal culture, infection, and treatment was followed closely. Briefly, corneoscleral buttons were excised and rinsed in PBS containing 200 U/mL penicillin and 200 μg/mL streptomycin. The endothelial concavity was filled with culture medium containing 1% low melting temperature agarose. The corneas were cultured epithelial side up in MEM medium supplemented with nonessential amino acids (1×), 2 mM […], 200 U/mL penicillin, and 200 μg/mL streptomycin. The next day, they were infected with 1×10^4 plaque forming units (PFU)/cornea of strain KOS HSV-1 for 1 hour, rinsed, and overlaid with fresh medium. Drug treatments were administered at the same concentrations as for cultured cells. For KU-55933 bioavailability assessment, corneas were treated with bleomycin (200 μg/mL) for 1 hour. […] Treatment toxicity was assessed by briefly staining the cornea with fluorescein (1% wt/vol in PBS) and imaging the epithelial defects with 464-nm wavelength blue light (LDP LLC, Carlstadt, N.J.).
# Standard protocol was followed for Western blot analysis. […] Protein concentrations were measured by bicinchoninic acid (BCA) assay. […]
smiles,measurement,setting,value
"O=c1cc(-c2cccc3c2Sc2ccccc2S3)oc(N2CCOCC2)c1 [KU-55933, 2-(morpholin-4-yl)-6-(thianthren-1-yl)-pyran-4-one]","viral replication, treatment administered at 1 hpi and later",HSV-1,significantly less effect
same,"viral replication, treatment started prior to the 1 hpi timepoint",HSV-1,notable reduction
same,survival and proliferation of cultured cells after treatment,hTCEpi cells; 2 full weeks following a 24-hour treatment,able to survive and proliferate well
same,clonal survival compared to mock-treated controls,"hTCEpi cells; hTCEpi cells, KU-55933 10 μM continuously for 24 hours",roughly 70%
same,pATM level in corneal epithelium,ATM,completely eliminated
